Results on two compounds are retold here after patent US8178135B2, “Aqueous solution of conophylline and/or conophyllidine” (Keio University, priority 2006, dated 2012).

A short description of series [1]: Amounts in lysate, acid extract and fractions after neutralization to pH 6.0, centrifugation and ultrafiltration (HPLC). The format is physicochemical. As to conditions: for amount in Aqueous extract: clarified 0.1 N hydrochloric acid extract; for amount in Lysate: distilled water, 50° C. 30 min, centrifuged supernatant; for amount in Centrifuged supernatant: extract adjusted to pH 6.0, 1,500×g 5 min; for amount in Centrifuged precipitate: extract adjusted to pH 6.0, precipitate dissolved in equal volume of 50% ethanol; for amount in UF filtrate: pH 6.0, passed ultrafiltration membrane; for amount in UF filtrate / amount in UF debris: cut-off 50,000; for amount in UF debris: pH 6.0, retained on ultrafiltration membrane. The protocol: Conophylline and conophyllidine were analyzed by reversed phase HPLC in a high pressure gradient mode using a YMC-Pack Pro C18 RS column (4.6 mm×250 mm; manufactured by YMC Co., Ltd.). The mobile phase consisted of 1% by volume acetic acid as solvent A and acetonitrile as solvent B. The gradient program was set to start with 10% B at a flow rate of 1 ml/min, and the portion of B was increased linearly to 55% over 25 min. The column temperature was 40° C. and UV absorption was monitored at the wavelength of 335 nm. The reference solutions of conophylline and conophyllidine were prepared immediately before measurement and their concentrations were calculated from the absorbance at 335 nm of the solutions prepared.
200 ml of 0.1 N hydrochloric acid was added to 4 g of pulverized product of the dried leaves obtained by the same method as in Example 2, which was then extracted at 50° C. for 30 min. After the debris was removed by paper filtration, the extract was ultrafiltrated with pencil-type module SLP-0053 manufactured by Asahi Kasei Corporation (molecular weight cut-off 10,000) and 165 ml of filtrate was recovered. The pH of the filtrate was adjusted by gradually adding sodium carbonate aqueous solution and the precipitate formed was recovered by centrifugation. The precipitate was then vacuum-evaporated to yield 70 mg of dried product. This dried product contained 9.8 μg of conophylline and 13.3 μg of conophyllidine per mg
The extract was prepared and clarified by removing debris by paper filtration in the same method as in Example 5. Then 100 ml of the clarified extract was adjusted to pH 6.0 with sodium hydroxide aqueous solution. This solution was centrifuged (1,500×g, 5 min) to separate into a supernatant (centrifuged supernatant) and precipitate (centrifuged precipitate). Next, the precipitate was dissolved in an equal volume of 50% ethanol, and the amounts of the active ingredients (conophylline and conophyllidine) in the clarified extract, the centrifuged supernatant, and the centrifuged precipitate were measured by HPLC. Further, the amounts of the active ingredient in the supernatant (lysate) obtained by adding 200 ml of distilled water to 4 g of the pulverized product of the dried leaves of Tabernaemontana divaricata and heating at 50° C. for 30 min, followed by centrifugation at 1,500×g for 5 min were also measured by HPLC.
Further, a sodium hydroxide aqueous solution was added to 1 ml of the above-described clarified extract to adjust pH to 6.0. This extract was treated with an ultrafiltration membrane USY-5 (molecular weight cut-off: 50,000), manufactured by Advantech Co., Ltd. and the filtrate which had passed through the membrane was recovered (UF filtrate). At the same time, the remaining component on the membrane was dissolved and recovered using 1 ml of 50% ethanol (UF debris), and the amounts of the active ingredients in the UF filtrate and UF debris were measured by HPLC (Table 5). As a result, no amount of conophylline or conophyllidine was not detected in the filtrate at all; almost all was present in the fraction which had not permeated through the ultrafiltration membrane.

Series [2] can be described thus: Solubility in distilled water or 1% SDS. The format is physicochemical. The protocol:
10 mg of weighed Crude extract I obtained in Example 1 was added to 1 ml of distilled water or 1 ml of 1% sodium dodecyl sulfate (SDS) aqueous solution and was stirred vigorously. The solution was centrifuged at 5,000×g for 2 min and the concentrations of conophylline and conophyllidine in the supernatant were measured.

A short description of series [3]: Blood concentrations after oral administration of acetic acid extract or dried pulverized leaves to healthy rats. The format is in vivo, rat. The protocol:
Dried leaves of Tabernaemontana divaricata were pulverized with a home mill, 1 g of the pulverized product was homogenized in 20 ml of 0.3 M acetic acid solution, and the active ingredient was extracted by stirring at 50° C. for 30 min. The supernatant was recovered by centrifugation and concentrated to dryness to obtain 0.3 g of powder (acetic acid extract). This powder contained conophylline and conophyllidine at 1.0 mg/g and 0.8 mg/g, respectively.
Further, 1 g of pulverized leaves was homogenized in 20 ml of distilled water and then concentrated to dryness to obtain 1 g of product (dried pulverized leaves). The amounts of the active ingredients of conophylline and conophyllidine were 0.40 mg/g and 0.35 mg/g, respectively.
Next, 0.2 g of the acetic acid extract and 0.5 g of the dried pulverized leaves were separately suspended in 5 ml of water for injection. These suspensions were administered to 5-week old healthy rats (Crj:CD (SD) IGS, SPF, male) using a sonde by forced oral administration at a dose of 5 ml/kg body weight (n=2 per suspension). Blood was taken from the orbital venous plexus of each rat before oral administration, 1.5, 3, 6, 12, and 24 hours post administration and serum was recovered by centrifugation. The concentrations of conophylline and conophyllidine in the blood were measured by precipitating protein by addition of 2 volumes of acetonitrile to the serum followed by HPLC analysis of the supernatant (Table 6).

Series [4] can be described thus: Concentration dissolved after neutralization with pectin or sodium polyacrylate (partially purified by reversed phase column). The class given is physicochemical. Particulars: for concentration in solution: Control: not neutralized. The protocol:
Crude extract I (250 mg) obtained in Example 1 was dissolved in 5 ml of ethanol. Water was added to this solution in a total volume of 50 ml, which was passed through a glass column packed with about 5 ml of ODS resin (DM1020T, manufactured by Fuji Silysia Chemical Ltd.). After unadsorbed matter was removed by washing the column with 10 ml of distilled water, the adsorbed component was eluted with 10 ml of ethanol. Then, after the solvent was removed by centrifugal concentration, the concentrate was dissolved in 5 ml of 0.1 N hydrochloric acid and the solution was dispensed in 0.5 ml aliquots into test tubes. Then, 10 μl, 100 μl, or 1000 μl of a 0.2% aqueous solution of pectin or 0.2% aqueous solution of sodium polyacrylate was added to the aliquots. The solutions were treated in the same way as in Example 11 and the concentrations of conophylline and conophyllidine in the supernatants were measured.

The test system of series [5] is model animals of neonatal diabetes. As to conditions: intraperitoneally administered; cited from earlier work.
Series [6] can be described thus: Crude extract II absorption test in GK rats. The format is in vivo, rat. As to conditions: Crude extract II 4.3 or 13 mg/kg, 1.5-24 h. The protocol: Sixteen 10-week old GK rats were divided into four groups (n=4 per group). Two groups (the fasted groups) were fasted for 16 hours, and the remaining two groups (the fed groups) were allowed ad libitum access to chow and water. The fed groups received Crude extract II (containing Tween 80) at 4.3 mg/kg or 13 mg/kg. Blood was taken at 1.5, 3, 6, 12, and 24 hours post administration and plasma conophylline concentration was measured. Likewise, the fasted groups also received Crude extract II and plasma conophylline concentration was measured.

Where [7] appears, read: pH 6.0, Sodium polyacrylate 10 μg/ml.
Where [8] appears, read: pH 6.0, Sodium polyacrylate 100 μg/ml.

As to `CC[C@@]12C=CCN3CC[C@]4(C(=C(C(=O)OC)C1)Nc1cc5c(cc14)[C@H]1[C@@H](O5)[C@H](O)[C@]4(CC)CC(C(=O)OC)=C5Nc6c(cc(O)c(OC)c6OC)[C@@]56CCN1[C@H]46)[C@H]32` (stereo in doubt) [Conophyllidine, conophyllidine], the “amount in Aqueous extract” value in series [1] worked out at 2.01 µg/mL. The “amount in Lysate” value in series [1] came out at 0.02 µg/mL. Besides, the “amount in Centrifuged supernatant” value in series [1] is 1.41 µg/mL. For the same compound, the “amount in Centrifuged precipitate” value in series [1] was determined as 0.30 µg/mL. Also, the “amount in UF filtrate” value in series [1] was 0.00 µg/mL. Besides, in series [1], the “amount in UF debris” value came to 2.19 µg/mL. In addition, the concentration in supernatant in series [2] (10 mg Crude extract I in 1 ml 1% SDS) amounted to 2970 ng/mL; in series [2] (10 mg Crude extract I in 1 ml Distilled water), 680 ng/mL. The blood concentration in series [3] (Dried pulverized leaves oral, healthy rats (animals 3, 4), 6 h) worked out at 54 ng/mL; in series [3] (Dried pulverized leaves oral, healthy rats (animals 3, 4), 12 h) it was 13 ng/mL; in series [3] (Dried pulverized leaves oral, healthy rats (animals 3, 4), 24 h), 2 ng/mL. In addition, the “time at which blood concentration reached its maximum” value in series [3] (acetic acid extract oral, rats) was 1.5 h. Moreover, in series [3] (male, Crj:CD (SD) IGS, rat, in vivo, po, 0.5 g/kg, Dried pulverized leaves oral, healthy rats (animals 3, 4), 6 h), the concentration at 6 h came out at 28 ng/mL. This compound also registered a concentration at 12 h in series [3] (male, Crj:CD (SD) IGS, rat, in vivo, po, 0.5 g/kg, Dried pulverized leaves oral, healthy rats (animals 3, 4), 12 h) of 8 ng/mL. This compound also displayed a concentration at 24 h in series [3] (male, Crj:CD (SD) IGS, rat, in vivo, po, 0.5 g/kg, Dried pulverized leaves oral, healthy rats (animals 3, 4), 24 h) of 1 ng/mL. This compound also yielded a concentration in solution in series [4] of 16080 ng/mL. For the same compound, the “concentration in supernatant after neutralization” value in series [4] (pH 6.0, Pectin 10 μg/ml) was found to be 130 ng/mL; in series [4] (pH 6.0, Pectin 100 μg/ml) it was 570 ng/mL; in series [4] (pH 6.0, Pectin 1000 μg/ml), 2740 ng/mL; in series [4] (setting [7]), 170 ng/mL; in series [4] (setting [8]), 6990 ng/mL; in series [4] (pH 6.0, additive None), 160 ng/mL.
For the compound `CC[C@@]12CC(C(=O)OC)=C3Nc4cc5c(cc4[C@@]34CCN(C[C@H]3O[C@H]31)[C@@H]24)[C@@H]1[C@H](O5)[C@@H](O)[C@@]2(CC)CC(C(=O)OC)=C3Nc4c(cc(O)c(OC)c4OC)[C@@]34CCN1[C@@H]24` [Conophylline, conophylline], in series [1], the “amount in Aqueous extract” value amounted to 2.62 µg/mL, the “amount in Lysate” value came to 0.04 µg/mL, the “amount in Centrifuged supernatant” value was found to be 2.22 µg/mL and the “amount in Centrifuged precipitate” value was 0.48 µg/mL. Further, in series [1], the “amount in UF filtrate” value turned out to be 0.00 µg/mL and the “amount in UF debris” value worked out at 2.39 µg/mL. The blood glucose levels entry in series [5] was “significantly suppressing increased blood glucose levels”. Besides, in series [3] (male, Crj:CD (SD) IGS, rat, in vivo, po), the “time at which blood concentration reached its maximum” value was 1.5 h. Further, the “blood (plasma) conophylline concentration, fasted vs fed groups” value in series [6] was “slightly higher in the fasted groups, but no significant difference”. In addition, the concentration in solution in series [4] came to 11280 ng/mL. Further, in series [4] (pH 6.0, Pectin 10 μg/ml), the “concentration in supernatant after neutralization” value stood at 270 ng/mL. For the same compound, the “concentration in supernatant after neutralization” value in series [4] (pH 6.0, Pectin 100 μg/ml) was found to be 550 ng/mL. In addition, the “concentration in supernatant after neutralization” value in series [4] (pH 6.0, Pectin 1000 μg/ml) was found to be 2590 ng/mL. The “concentration in supernatant after neutralization” value in series [4] (setting [7]) came out at 240 ng/mL. Further, the “concentration in supernatant after neutralization” value in series [4] (setting [8]) is 5150 ng/mL. In series [4] (pH 6.0, additive None), the “concentration in supernatant after neutralization” value amounted to 190 ng/mL.
